Test results: PMC8924334, “Synthesis of [^11C]carbonyl-labeled cyclohexyl (5-(2-acetamidobenzo[d]thiazol-6-yl)-2-methylpyridin-3-yl)carbamate ([^11C-carbonyl]PK68) as a potential PET tracer for receptor-interacting protein 1 kinase” (EJNMMI Radiopharmacy and Chemistry, 2022)

Biological target: T1, RIPK1 (Mus musculus, UniProt Q60855)
T1 construct: RIPK1 in liver of healthy mouse would exist with nonnegligible level; from tissue; host or cells: living healthy mice; volumes of interest on heart, lung, liver, kidney, small intestine, muscle and brain
T1 sequence (Q60855 1-656): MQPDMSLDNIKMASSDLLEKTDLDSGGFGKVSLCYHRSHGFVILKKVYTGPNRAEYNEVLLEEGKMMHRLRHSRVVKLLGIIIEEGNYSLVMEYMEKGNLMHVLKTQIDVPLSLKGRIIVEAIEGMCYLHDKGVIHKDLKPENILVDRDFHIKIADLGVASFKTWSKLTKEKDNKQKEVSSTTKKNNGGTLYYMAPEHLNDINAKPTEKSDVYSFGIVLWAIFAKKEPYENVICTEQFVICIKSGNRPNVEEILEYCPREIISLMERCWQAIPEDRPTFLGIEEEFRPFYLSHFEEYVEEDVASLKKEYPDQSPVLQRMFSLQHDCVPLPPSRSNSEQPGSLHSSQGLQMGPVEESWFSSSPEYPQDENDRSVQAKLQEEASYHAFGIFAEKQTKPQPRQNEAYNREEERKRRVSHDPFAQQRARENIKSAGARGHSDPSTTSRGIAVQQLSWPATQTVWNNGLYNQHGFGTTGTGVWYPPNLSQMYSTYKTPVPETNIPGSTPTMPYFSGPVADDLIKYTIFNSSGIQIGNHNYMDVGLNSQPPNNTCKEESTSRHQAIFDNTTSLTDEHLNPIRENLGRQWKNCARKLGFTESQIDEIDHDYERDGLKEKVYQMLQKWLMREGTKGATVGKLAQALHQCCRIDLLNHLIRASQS
Test: Small-animal PET imaging, baseline and blocking with unlabeled PK68
Assay type: in vivo, mice
Description: Each mouse was anesthetized using 1.5% (v/v) isoflurane, and an intravenous catheter was inserted into its tail vein. The mice (10–14 weeks old, 48.1 ± 7.4 g) were subsequently maintained under anesthesia and secured in a custom-designed chamber placed in the center of a small-animal PET scanner (Inveon, Siemens Healthineers, Erlangen, Germany). After adjusting the target position for scanning, dynamic emission scans (in three-dimensional list mode) were performed for 60 min (1 min × 4 frames, 2 min × 8 frames, and 5 min × 8 frames). [^11C]PK68 (11–16 MBq) was injected via a tail vein catheter. The body temperature of each mouse was maintained at 37 °C using a heated (40 °C) water circulation system (T/Pump TP401, Gaymar Industries, NY, USA) during the PET scan. For the blocking study, the mice were pretreated with unlabeled PK68 (1 mg/kg) just before the injection of [^11C]PK68. The obtained dynamic PET images (0.6 mm slice thickness) were reconstructed by filtered-back projection using a Hanning filter, with a Nyquist cutoff of 0.5 cycles per pixel. The time–activity curves (TACs) of [^11C]PK68 were acquired using PMOD software (version 3.4, PMOD Technology, Zurich, Switzerland) from the volumes of interest, which were manually mapped onto the heart, lung, liver, kidney, small-intestine (part of duodenum), muscle, and brain. The radioactivity was decay-corrected to the injection time and is expressed as a standardized uptake value (SUV), normalized for injected radioactivity and body weight. The SUV was calculated according to the following formula: SUV = (radioactivity per milliliter tissue/injected radioactivity) × body weight (g). We also calculated the area under the curve (AUC) using TACs from 0 to 60 min.

[1] = blocking with unlabeled PK68 1 mg/kg i.v.

For Cc1ncc(-c2ccc3nc(N[11C](C)=O)sc3c2)cc1NC(=O)OC1CCCCC1 [[^11C]PK68, Cyclohexyl (5-(2-[^11C-carbonyl]acetamidobenzo[d]thiazol-6-yl)-2-methylpyridin-3-yl)carbamate], the “peak radioactivity in kidney” value (baseline) was 2.7 SUV, the “peak radioactivity in liver” value (baseline) was 4.8 SUV and the “uptake of radioactivity by the brain” value (baseline mice, PET, i.v.) was < 0.3 SUV. The “time of peak radioactivity in kidney” value (baseline, after injection) was 1.5 min, the “time of peak radioactivity in liver” value (baseline, after injection) was 2.5 min and the “peak radioactivity in kidneys” value [1] was 2.3 SUV. For the same compound, the “peak radioactivity in liver” value [1] was 4.2 SUV, the “specific binding for RIPK1 in PET imaging” value (healthy mice) was “no obvious specific binding” and the “difference in AUC (0-60 min) in liver and kidney, baseline vs blocking” value (n = 2 per group) was “no significant differences”. For the same compound, the “reduction of maximum SUV in liver and kidney by blocking” value (unlabeled PK68 1 mg/kg i.v.) was “roughly 15%”.
